# Like-named read-outs stand apart in the source and are kept apart here.
# Columns and labels:
# [1] = test system: rat bladder micturition; test: Rat bladder cystometry, hyperreflexic bladder (0.25% acetic acid infusate); format: in vivo
# Method: Micturition frequency is enhanced by the stimulation of sensory afferents using a dilute acetic acid solution in the cystometric infusate as previously described by Birder and de Groat (Birder L A. de Groat W C. Increased c-fos expression in spinal neurons after irritation of the lower urinary tract in the rat. J Neuroscience 12: 4878–89, (1992)). Briefly, female Sprague-Dawley rats (190–210 g) are anesthetized with urethane (lg/kg/10 mL, i. p.; 1 g/kg/10 mL, s. q.). The trachea is cannulated with PE205 to ensure a patent airway. The external jugular is cannulated with PE50 tubing for administration of compound. The bladder is exposed through a midline incision, and an angiocatheter (24 g, TEFLON), is heat flared at the end and inserted into the dome of the bladder and secured with 4-0 silk. The bladder is flushed with normal saline and allowed to equilibrate for 1 hour before cystometry is performed. Using a “T” connector, the bladder catheter is connected to a Statham pressure transducer (Model P23Db) and to a Harvard infusion pump. Cystometric recordings are monitored on a GRASS polygraph while infusing the bladder with saline containing 0.25% acetic acid at a rate of 2.4 mL/hr. for one hour. Next, compound is administered intravenously and the cystometry monitored for an additional 2 hours. The following cystometric parameters are recorded: micturition interval, micturition amplitude, micturition threshold pressure, bladder capacity, bladder compliance and the number of spontaneous bladder contractions (SBC) during the filling phase. The control period is taken as the 30 minute time period of acetic acid saline perfusion before dosing.
# Rat bladder micturition frequency (enhanced by infusate containing 0.25% acetic acid (Birder, L. A., & deGroat, W., C. Increased c-fos expression in spinal neurons after irritation of the lower urinary tract in the rat. J Neurosc 12: 4878–4889 (1992))) was inhibited by retigabine in a dose-dependent (0.1–10 mg/kg, i.p.) manner. At 10 mg/kg, micturition was blocked in 100% of animals dosed; the population ED50 was 1–2 mg/kg (n=5–8). Micturition block lasted for up to 90 minutes (FIG. 4a).
# (§1) Rat bladder strips were isolated and prepared as previously described (Wojdan, A., Freeden, C., Woods, M., Oshiro, G., Spinelli, W. et al., J Pharmacol ExpTherap 289:1410–1418 (1999)). Preparations were contracted with either 20 or 60 mM KCl, or 200 nM carbachol. A five minute area under the contraction curve was acquired 20 minutes after addition of each concentration of retigabine using a 12 bit D/A and a 586 based personal computer running custom software. Message for KCNQ subunits was probed using quantitative rtPCR on an ABI PRISM 7700 Sequence Detection System (TAQMAN). Forward and reverse primers and TAQMAN probes were designed using published RNA sequences for human KCNQ1–5 and rat KCNQ 1–4 listed within the NCBI data base. Since no rat sequence for KCNQ5 were currently published, probes and primers were designed by BLAST analysis of rat Expressed Sequence Tags (EST) using the known mouse KNCQ5 sequence. From homologous EST sequences, a contiguous sequence of 384 base pairs was constructed. Probes and primers were designed against this sequence. BLAST analysis of our rat KCNQ5 probes and primer were selective for mouse and human KCNQ5 sequences. PCR products were confirmed by gel electrophoresis (data not shown). Cells for electrophysiology were prepared from rat bladder smooth muscle as previously described (Wojdan et al., 1999). Human bladder smooth muscle cells were obtained from Clonetics, San Diego, Calif. Cells were removed from culture with trypsin and added directly into the recording chamber. All recordings were made at 320 C and acquired on a 586 based personal computer using pCLAMP (Axon Instruments) software. Current clamp recordings were performed with nystatin access as previously described (Wojdan et al.). […]
# [2] = test system: isolated rat bladder strips; test: Isolated rat bladder strip contraction; details: Rattus norvegicus, n=4
# Method: Male Sprague-Dawley rats (200–400 grams) are euthanized by CO2 inhalation and exsanguination. Their urinary bladders are rapidly removed and placed in […] physiological salt solution (PSS) that contained the following (mM): NaCl (118.4), KCl (5), CaCl2 (2.5), MgSO4 (1.2), KH2PO4 (1.2), NaHCO3 (24.9) and D-glucose (11.1) gassed with O2/CO2 (95% /5%) to achieve a pH of 7.4. The dome of the bladder is isolated from the trigon region and this tissue is then cut into 4–5 mm wide by 10 mm long strips. One end is secured to the bottom of a water jacketed tissue bath and the other to a GRASS isometric force transducer (Grass Instruments, Quincy, Mass.). Tissues are pretensioned (0.25 to 0.5 grams), and after 30 minutes of equilibration are contracted with an additional 15 mM KCl (total of 20 mM) and again allowed to equilibrate until the preparations are contracting steadily. Any of a variety of compounds are administered directly into the tissue baths as sequential concentrations. Transducer signals are digitized (12 bit resolution) and analyzed on-line using a 586-based computer and custom software. The area under the contraction curve (AUC) is used as a measure of contractility since the spontaneous bladder contractions are irregular in amplitude and frequency. A 5-minute AUC value is taken 30 minutes after administration of each compound concentration to the tissue bath.
# We isolated rat bladder strips from male Sprague-Dawley rats as previously described, (Wojdan, A., Freeden, C., Woods, M., Oshiro, G., Spinelli, W. et al., J Pharmacol Exp Therap 289: 1410–1418 (1999)) and precontracted them with 20 mM KCl. The KCNQ channel agonist retigabine, was added to the tissue bath in increasing concentrations, and area under the contraction curve was analyzed.
# In another study, isolated rat bladder strips were precontracted with 60 mM KCl (FIG. 1).
# The difference in IC50s between 20 and 60 mM KCl depolarizations are consistent with a potassium channel opening mechanism.
# as §1, with “Calif.” for “Calif. Cells were removed from culture with trypsin and added directly into the recording chamber. All recordings were made at 320 C and acquired on a 586 based personal computer using pCLAMP (Axon Instruments) software. Current clamp recordings were performed with nystatin access as previously described (Wojdan et al.).”
smiles,measurement,setting,value
"CCOC(=O)Nc1ccc(NCc2ccc(F)cc2)cc1N [retigabine, N-[2-amino-4-(4-fluorobenzylamino)-phenyl]carbamic acid ethyl ester]",frequency of spontaneous contractions during bladder filling,"[1]; 0.1 mg/kg, in comparison to the control",significantly reduced
same,inhibition of spontaneous contractions,"[1]; 1 mg/kg, i.p., p<0.05",43.5±14.1%
same,animals in which micturition was blocked,"[1]; 10 mg/kg, i.p.",100%
same,micturition,"[1]; 10 mg/kg, i.p., within minutes of dosing, four rats",completely blocked
same,ED50,"[1]; Rattus norvegicus, ip, n=5–8, read-out: population ED50 for micturition block",1 to 2 mg/kg
same,micturition frequency,"[1]; dose-dependent, 0.1–10 mg/kg, i.p.",inhibited
same,duration of micturition block,"[1]; i.p., FIG. 4a",up to 90 minutes
same,IC50,"[2]; read-out: IC50 for inhibition of isolated rat bladder strip contractions, precontracted with 20 mM KCl, area under the contraction curve",1.4 ± 0.1 µM
same,IC50,"[2]; read-out: IC50 for inhibition of isolated rat bladder strip contractions, precontracted with 60 mM KCl",21.8 ± 0.8 µM
